The values that follow come from patent publication EP0086660B1, “Renally active tetrapeptides” (SMITHKLINE BECKMAN CORPORATION, priority 1982, dated 1985).

Assay [1] has as its system anesthetized dogs. The assay is described as follows: anesthetized dog protocol: infusion, measuring MAP, RBF, RVR and HR. It counts as in vivo.
The conditions of assay [2]: secondary test.
Assay [3] has as its system spontaneously hypertensive rat.
The subject of assay [4] is toad bladder.
The conditions of assay [5]: secondary test. This is another data set of the same source.
Where [6] appears, read: cumulative effects at 300 µg/kg/min.

Read-outs that look alike come from different tables or passages of the source. Square brackets hold non-standard residues; d marks the D form. Peptide text beside a SMILES is read from it. * marks the point of attachment. Butanoyl(4-(4-HOPh)) = O=C(CCCc1ccc(O)cc1)*

“4-(4-hydroxyphenyl)-butyryl-L-prolyl-D,L-a-methylphenylalanyl-glycyl-L-proline [Example 2]” yielded a Renal blood flow in assay [1] (cumulative effect, measured after the normal period of the test, increased from 127 ml/min) of 162 mL/min. Besides, in assay [1] (cumulative effect, measured after the normal period of the test, predrug level 140 BPM), the “cardiac rate (HR)” value came to 105 BPM. The molecule further gave an ED15 in assay [2] of 1.9e-06 µg/kg. The “activity in the spontaneously hypertensive rat protocol” value in assay [3] (rat, in vivo) is “not active”. Besides, the water diuresis entry in assay [3] (spontaneously hypertensive rat protocol) is “slight water diuresis”. Further, in assay [4], the “reversal of antidiuretic hormone activity” value is “inactive”.

The molecule `NCCc1ccc(O)c(O)c1` [Dopamine, dopamine] had an ED15 in assay [5] of 3.5 µg/kg.

Take `O=C(NCC(=O)N1CCC[C@H]1C(=O)O)[C@@H](Cc1ccccc1)NC(=O)[C@@H]1CCCN1C(=O)CCCc1ccc(O)cc1` [Example 3, N-4-(4-hydroxyphenyl)-butyryl-L-prolyl-D-phenylalanyl-glycyl-L-proline] ({Butanoyl(4-(4-HOPh))}-P[dF]GP-OH): in assay [1] (setting [6]), the HR was -8 and the RBF entry was “+22”. Besides, the RVR in assay [1] (cumulative effects at 300 µg/kg/min, parameter name not printed before the value) is given as -18.
